molecular target: Adenosine A2A receptor (Homo sapiens, UniProt P29274); experiment: Adenosine A2A receptor competitive binding assay (Tag-lite HTRF); conditions: Tag-lite adenosine A2A receptor ligand binding, 2 h room temperature; values separated by / are repeat determinations
Experimental: Adenosine A2A Receptor Competitive Binding Assay
The Tag-lite adenosine A2A receptor ligand binding assay is a homogeneous alternative to radioligand binding assay and developed by Cisbio (Bedford, Mass.). We carried out this assay following Cisbio's instructions with minor modification. Pre-transfected, fluorescent donor-labelled cells (Cisbio Cat#: C1TT1A2A, 200 testes) was stored at −80° C. and thawed right before use. Cells were washed once with 5 ml TLB and gently resuspended in 2 ml TLB. 4 μl suspended cells was dispensed into each well of white low-volume 384-well plate (Greiner Bio-One). Serial dilutions of compounds were prepared in Tag-lite buffer (TLB, Cisbio Cat #: LABMED) to a DMSO concentration of 0.6%. After adding 4 μl of compound dilutions to each well, 4 μl60 nM Adenosine A2A receptor red antagonist fluorescent ligand (Cisbio Cat #: L0058RED) was dispensed to each well. The 384-well assay plate was centrifuged briefly and incubated at room temperature for 2 h. HTRF signals were measured using CIARIOstar plate reader (BMG Labtech).

Sequence of Adenosine A2A receptor (P29274 whole entry): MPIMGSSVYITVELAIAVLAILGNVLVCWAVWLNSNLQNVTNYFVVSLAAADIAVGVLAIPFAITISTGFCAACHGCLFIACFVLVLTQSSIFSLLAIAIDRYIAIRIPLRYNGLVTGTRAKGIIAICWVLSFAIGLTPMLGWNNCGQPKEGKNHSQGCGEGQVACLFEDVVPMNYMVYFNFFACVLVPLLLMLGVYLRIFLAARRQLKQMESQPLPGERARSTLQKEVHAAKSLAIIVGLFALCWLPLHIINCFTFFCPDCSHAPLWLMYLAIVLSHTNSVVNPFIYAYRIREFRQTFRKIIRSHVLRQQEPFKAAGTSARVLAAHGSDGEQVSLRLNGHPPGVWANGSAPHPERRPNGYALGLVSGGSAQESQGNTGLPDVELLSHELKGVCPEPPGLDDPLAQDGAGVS

SMILES	IC50
Cc1cc(-c2c(OCCN3CCN(C)CC3)nc(N)nc2-c2ccc(F)cc2)cc(C(F)F)n1 [Example 35, 5-(2-(difluoromethyl)-6-methylpyridin-4-yl)-4-(4-fluorophenyl)-6-(2-(4-methylpiperazin-1-yl)ethoxy)pyrimidin-2-amine]	124 nM
CCN(CC)C(=O)CN(C)c1nc(N)nc(-c2ccccc2)c1-c1cc(C)nc(C(F)(F)F)c1 [Example 38, 2-((2-amino-5-(2-methyl-6-(trifluoromethyl)pyridin-4-yl)-6-phenylpyrimidin-4-yl)(methyl)amino)-N,N-diethylacetamide]	816 nM
Cc1cc(-c2c(OCC(=O)NC3CCOCC3)nc(N)nc2-c2ccc(F)cc2)cc(C(F)F)n1 [Example 40, 2-((2-amino-5-(2-(difluoromethyl)-6-methylpyridin-4-yl)-6-(4-fluorophenyl)pyrimidin-4-yl)oxy)-N-(tetrahydro-2H-pyran-4-yl)acetamide]	295 nM
Cc1cc(-c2c(OCC(=O)NCCN(C)C)nc(N)nc2-c2ccc(F)cc2)cc(C(F)F)n1 [Example 43, 2-((2-amino-5-(2-(difluoromethyl)-6-methylpyridin-4-yl)-6-(4-fluorophenyl)pyrimidin-4-yl)oxy)-N-(2-(dimethylamino)ethyl)acetamide]	266 nM
Cc1cc(-c2c(OCC(=O)NC3CCN(C)CC3)nc(N)nc2-c2ccc(F)cc2)cc(C(F)F)n1 [Example 44, 2-((2-amino-5-(2-(difluoromethyl)-6-methylpyridin-4-yl)-6-(4-fluorophenyl)pyrimidin-4-yl)oxy)-N-(1-methylpiperidin-4-yl)acetamide]	1210 nM
Cc1cc(-c2c(OCC(=O)NCCCS(C)(=O)=O)nc(N)nc2-c2ccc(F)cc2)cc(C(F)F)n1 [Example 50, 2-((2-amino-5-(2-(difluoromethyl)-6-methylpyridin-4-yl)-6-(4-fluorophenyl)pyrimidin-4-yl)oxy)-N-(3-(methylsulfonyl)propyl)acetamide]	535 nM
Cc1cc(-c2c(OCC(O)C(C)(C)O)nc(N)nc2-c2ccc(F)cc2)cc(C(F)F)n1 (centres unmarked) [Example 91, 1-((2-amino-5-(2-(difluoromethyl)-6-methylpyridin-4-yl)-6-(4-fluorophenyl)pyrimidin-4-yl)oxy)-3-methylbutane-2,3-diol]	> 1000 nM
Cc1cc(-c2c(OCCc3ccc(C#N)cc3)nc(N)nc2-c2ccc(F)cc2)cc(C(F)F)n1 [Example 93, 4-(2-((2-amino-5-(2-(difluoromethyl)-6-methylpyridin-4-yl)-6-(4-fluorophenyl)pyrimidin-4-yl)oxy)ethyl)benzonitrile]	133 nM
Cc1cc(-c2c(OCC3(O)CCOCC3)nc(N)nc2-c2ccc(F)cc2)cc(C(F)F)n1 [Example 104, 4-(((2-amino-5-(2-(difluoromethyl)-6-methylpyridin-4-yl)-6-(4-fluorophenyl)pyrimidin-4-yl)oxy)methyl)tetrahydro-2H-pyran-4-ol]	> 1000 nM
Cc1cc(-c2c(C(=O)NCc3cccc(C(C)C)n3)nc(N)nc2-c2ccc(F)cc2)cc(C(F)F)n1 [Example 108, 2-amino-5-(2-(difluoromethyl)-6-methylpyridin-4-yl)-6-(4-fluorophenyl)-N-((6-isopropylpyridin-2-yl)methyl)pyrimidine-4-carboxamide]	222 nM
Cc1cc(-c2c(C(=O)NCc3cccc(C4CC4)n3)nc(N)nc2-c2ccc(F)cc2)cc(C(F)F)n1 [Example 109]	205 nM
Cc1cc(-c2c(C(=O)NCc3cccc(C(C)(C)O)n3)nc(N)nc2-c2ccc(F)cc2)cc(C(F)F)n1 [Example 110, 2-amino-5-(2-(difluoromethyl)-6-methylpyridin-4-yl)-6-(4-fluorophenyl)-N-((6-(2-hydroxypropan-2-yl)pyridin-2-yl)methyl)pyrimidine-4-carboxamide]	250 nM
Cc1cc(-c2c(OCc3nccn3C3CCOCC3)nc(N)nc2-c2ccc(F)cc2)cc(C(F)F)n1 [Example 172, 5-(2-(difluoromethyl)-6-methylpyridin-4-yl)-4-(4-fluorophenyl)-6-((1-(tetrahydro-2H-pyran-4-yl)-1H-imidazol-2-yl)methoxy)pyrimidin-2-amine]	165 nM

Other lines, results leading:

IC50	SMILES
70 nM	Cc1cc(-c2c(OCC(=O)N(C)C3COC3)nc(N)nc2-c2ccc(F)cc2)cc(C(F)F)n1 [Example 101, 2-((2-amino-5-(2-(difluoromethyl)-6-methylpyridin-4-yl)-6-(4-fluorophenyl)pyrimidin-4-yl)oxy)-N-methyl-N-(oxetan-3-yl)acetamide]
66 nM	Cc1cc(-c2c(C(=O)NC3CCCc4cccnc43)nc(N)nc2-c2ccc(F)cc2)cc(C(F)F)n1 (centres unmarked) [Example 100, 2-amino-5-(2-(difluoromethyl)-6-methylpyridin-4-yl)-6-(4-fluorophenyl)-N-(5,6,7,8-tetrahydroquinolin-8-yl)pyrimidine-4-carboxamide]
61 nM	Cc1cc(-c2c(OCC3CCN(S(C)(=O)=O)CC3)nc(N)nc2-c2ccc(F)cc2)cc(C(F)F)n1 [Example 96, 5-(2-(difluoromethyl)-6-methylpyridin-4-yl)-4-(4-fluorophenyl)-6-((1-(methylsulfonyl)piperidin-4-yl)methoxy)pyrimidin-2-amine]
45.3 nM	Cc1cc(-c2c(OC3COC3)nc(N)nc2-c2ccc(F)cc2)cc(C(F)F)n1 [Example 34, 5-(2-(difluoromethyl)-6-methylpyridin-4-yl)-4-(4-fluorophenyl)-6-(oxetan-3-yloxy)pyrimidin-2-amine]
44 nM	Cc1cc(-c2c(OCC(=O)Nc3ccccn3)nc(N)nc2-c2ccc(F)cc2)cc(C(F)F)n1 [Example 107, 2-((2-amino-5-(2-(difluoromethyl)-6-methylpyridin-4-yl)-6-(4-fluorophenyl)pyrimidin-4-yl)oxy)-N-(pyridin-2-yl)acetamide]
41 nM	COC(=O)Nc1ccc(CCOc2nc(N)nc(-c3ccc(F)cc3)c2-c2cc(C)nc(C(F)F)c2)cc1 [Example 72, Methyl(4-(2-((2-amino-5-(2-(difluoromethyl)-6-methylpyridin-4-yl)-6-(4-fluorophenyl)pyrimidin-4-yl)oxy)ethyl)phenyl)carbamate]
31 nM	Cc1cc(-c2c(OCCc3ccc(N4CCN(C5COC5)CC4)cc3)nc(N)nc2-c2ccc(F)cc2)cc(C(F)F)n1 [Example 64, 5-[2-(difluoromethyl)-6-methylpyridin-4-yl]-4-(4-fluorophenyl)-6-(2-[4-[4-(oxetan-3-yl)piperazin-1-yl]phenyl]ethoxy)pyrimidin-2-amine]
28 nM	Cc1cc(-c2c(OCCc3ccc(N4CCN(S(C)(=O)=O)CC4)cc3)nc(N)nc2-c2ccc(F)cc2)cc(C(F)F)n1 [Example 58, 5-(2-(difluoromethyl)-6-methylpyridin-4-yl)-4-(4-fluorophenyl)-6-(4-(4-(methylsulfonyl)piperazin-1-yl)phenethoxy)pyrimidin-2-amine]
21.3 nM	Cc1cc(-c2c(Oc3ccccc3)nc(N)nc2-c2ccc(F)cc2)cc(C(F)F)n1 [Example 47, 5-(2-(difluoromethyl)-6-methylpyridin-4-yl)-4-(4-fluorophenyl)-6-phenoxypyrimidin-2-amine]
13.9 nM	Cc1cc(-c2c(OCCN3CCN(S(C)(=O)=O)CC3)nc(N)nc2-c2ccc(F)cc2)cc(C(F)F)n1 [Example 49, 5-(2-(difluoromethyl)-6-methylpyridin-4-yl)-4-(4-fluorophenyl)-6-(2-(4-(methylsulfonyl)piperazin-1-yl)ethoxy)pyrimidin-2-amine]
11.4 nM	Cc1cc(-c2c(OCCN3CCOCC3)nc(N)nc2-c2ccc(F)cc2)cc(C(F)F)n1 [Example 36, 5-(2-(difluoromethyl)-6-methylpyridin-4-yl)-4-(4-fluorophenyl)-6-(2-morpholinoethoxy)pyrimidin-2-amine]
10.2 nM	Cc1cc(-c2c(OCC3COC3)nc(N)nc2-c2ccc(F)cc2)cc(C(F)F)n1 [Example 37, 5-(2-(difluoromethyl)-6-methylpyridin-4-yl)-4-(4-fluorophenyl)-6-(oxetan-3-ylmethoxy)pyrimidin-2-amine]
5.2 nM	Cc1cc(-c2c(OCC(=O)NC3CC3)nc(N)nc2-c2ccc(F)cc2)cc(C(F)F)n1 [Example 42, 2-((2-amino-5-(2-(difluoromethyl)-6-methylpyridin-4-yl)-6-(4-fluorophenyl)pyrimidin-4-yl)oxy)-N-cyclopropylacetamide]

same assay, conditions: Tag-lite adenosine A2A receptor ligand binding, HTRF

IC50	SMILES
13 nM	CCc1nnn(C)c1COc1nc(N)nc(-c2ccc(F)cc2)c1-c1cc(C)nc(C(F)F)c1 [Example 200, 5-(2-(difluoromethyl)-6-methylpyridin-4-yl)-4-((4-ethyl-1-methyl-1H-1,2,3-triazol-5-yl)methoxy)-6-(4-fluorophenyl)pyrimidin-2-amine]
306 nM	Cc1cc(-c2c(OCc3nccn3CCC(C)(C)C(=O)O)nc(N)nc2-c2ccc(F)cc2)cc(C(F)F)n1 [Example 216, 4-(2-(((2-amino-5-(2-(dilfluoromethyl)-6-methylpyridin-4-yl)-6-(4-fluorophenyl)pyrimidin-4-yl)oxy)methyl)-1H-imidazol-1-yl)-2,2-dimethylbutanoic acid]
14 nM	Cc1cc(-c2c(OCc3nnn(CC4CC4)n3)nc(N)nc2-c2ccc(F)cc2)cc(C(F)F)n1 [Example 220, 4-((2-(cyclopropylmethyl)-2H-tetrazol-5-yl)methoxy)-5-(2-(difluoromethyl)-6-methylpyridin-4-yl)-6-(4-fluorophenyl)pyrimidin-2-amine]
